Results from patent EP4813990A1, “COMPOUND FOR TREATING CANCER” (INNOLAKE BIOPHARMA (HANGZHOU) CO., LTD., priority 2023, dated 2025).

How the values were obtained:
CHL cells = assay: Chromosome aberration test; format: cell-based; settings: CHL cells treated at 3.2, 16.0 and 80.0 µg/mL
Excerpt: The test observed the effect of ILB-2109 on chromosome structure and number of mammalian cells (CHL cells).

[1] = system: bone marrow polychromatic erythrocytes; assay: Micronucleus test; format: in vivo; settings: SD rats, intragastric 500 ~ 2000 mg/kg
Experimental: SD rats were given intragastric administration of 500 ~ 2000 mg/kg ILB-2109.

[2] = Liver microsome metabolism; format: in vitro ADME
Excerpt: The main biotransformation pathways of ILB-2109 in in vitro liver microsomes and hepatocytes include oxidation, dehydrogenation and glucuronidation (hepatocyte biotransformation pathway), and no human-specific metabolites were detected.

[3] = SD rat absorption test (pharmacokinetics); format: in vivo, SD rats; settings: for bioavailability / AUC(0-t) / half-life / clearance / Vd / Cmax: Sprague-Dawley, rat, plasma; for bioavailability: oral 12 mg/kg; for half-life: read-out: elimination half-life (T1/2) (converted); for clearance: read-out: plasma clearance rate (CL); for Vd: read-out: steady-state apparent volume of distribution (Vdss); for Cmax: read-out: peak concentrations (Cmax); for ratio of AUC0-last on Day 7 to Day 1 / ratio of Cmax on Day 7 to Day 1: continuous oral 40 mg/kg for 7 days
Experimental: (§1) According to the Technical Guidelines for Non-clinical Pharmacokinetic Studies of Drugs and the results of in vitro metabolic species difference studies, liquid chromatography-tandem mass spectrometry (LC-MS/MS) was used in this pharmacokinetic study to fully verify the analytical method for the determination of ILB-2109 content in plasma (EDTA-K2 anticoagulation) of Sprague-Dawley rats and cynomolgus monkeys. The linear range of the method was 20.0~20000 nM. The precision, accuracy and other indicators of the method were confirmed to comply with the relevant regulations of biological sample detection.
This experiment studied the pharmacokinetic properties of ILB-2109 in female and male SD rats, including 1) 2 mg/kg single intravenous injection administration study; 2) 12, 40 and 120 mg/kg oral dose escalation study; 3) 40 mg/kg repeated oral administration BID for 7 consecutive days.

A3 receptor = A3 receptor (Homo sapiens, UniProt P0DMS8); assay: Adenosine receptor selectivity, A2aR compared with A3; format: binding
Chain of A3 receptor (P0DMS8 whole entry): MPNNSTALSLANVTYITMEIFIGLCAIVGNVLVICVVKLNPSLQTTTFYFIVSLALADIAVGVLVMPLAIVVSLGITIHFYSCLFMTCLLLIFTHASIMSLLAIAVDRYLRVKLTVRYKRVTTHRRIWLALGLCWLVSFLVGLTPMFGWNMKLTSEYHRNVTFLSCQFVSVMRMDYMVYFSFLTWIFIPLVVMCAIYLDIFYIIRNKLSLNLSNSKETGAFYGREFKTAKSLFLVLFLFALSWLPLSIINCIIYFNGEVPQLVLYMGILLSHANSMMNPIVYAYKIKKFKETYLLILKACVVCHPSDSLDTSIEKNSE
Excerpt: (§2) Meanwhile, ILB-2109 had high selectivity for A2aR (compared with A1, A2b and A3 receptors, the selectivity was 18.9 times, 40.7 times and 3424.7 times respectively).

CYP1A2 = assay: In vitro hepatocyte induction assay; format: in vitro ADME
Excerpt: (§3) In vitro hepatocyte induction assay was used to evaluate the effect of ILB-2109 on the enzyme activity and gene expression level of cytochrome P450 isoenzymes CYP1A2, CYP2B6 and CYP3A4.

CYP2B6 = assay: In vitro hepatocyte induction assay; format: in vitro ADME
Excerpt: as §3

CYP3A4 = assay: In vitro hepatocyte induction assay; format: in vitro ADME; settings: for induction, gene expression level: hepatocytes
Excerpt: as §3

[4] = system: histidine-deficient Salmonella typhimurium strains (TA97a, TA98, TA100, TA102 and TA1535); assay: AMES reverse mutation test; format: cell-based; settings: 128 ~ 5000 µg/plate, with or without S9 metabolic activation system
Excerpt: This test detected the ability of ILB-2109 to induce reverse mutation of histidine-deficient Salmonella typhimurium strains (TA97a, TA98, TA100, TA102 and TA1535) with and without exogenous metabolic activation system. […] Therefore, under the research conditions, the Ames test result was negative.

[5] = Excretion of total radioactivity in intact rats; format: in vivo
Experimental: Excretion mainly occurred within 48 hours after administration, accounting for about 88.01% of the administered dose.

[6] = Cynomolgus monkey absorption test (pharmacokinetics); format: in vivo, cynomolgus monkeys; settings: for Cmax: read-out: peak concentration (Cmax)
Experimental: as §1
This experiment studied the pharmacokinetic properties of ILB-2109 in female and male cynomolgus monkeys, including 1) 3 mg/kg single intravenous injection administration study; 2) 3, 15 and 60 mg/kg oral dose escalation study; 3) 15 mg/kg oral administration BID for 7 consecutive days.

Plasma protein binding = format: in vitro ADME; settings: one range given for CD-1 mice, Sprague-Dawley rats, Beagle dogs and cynomolgus monkeys
A2aR = A2aR (Homo sapiens, UniProt P29274); assay: Inhibition of binding of A2aR to its isotopically labeled ligand
Chain of A2aR (P29274 whole entry): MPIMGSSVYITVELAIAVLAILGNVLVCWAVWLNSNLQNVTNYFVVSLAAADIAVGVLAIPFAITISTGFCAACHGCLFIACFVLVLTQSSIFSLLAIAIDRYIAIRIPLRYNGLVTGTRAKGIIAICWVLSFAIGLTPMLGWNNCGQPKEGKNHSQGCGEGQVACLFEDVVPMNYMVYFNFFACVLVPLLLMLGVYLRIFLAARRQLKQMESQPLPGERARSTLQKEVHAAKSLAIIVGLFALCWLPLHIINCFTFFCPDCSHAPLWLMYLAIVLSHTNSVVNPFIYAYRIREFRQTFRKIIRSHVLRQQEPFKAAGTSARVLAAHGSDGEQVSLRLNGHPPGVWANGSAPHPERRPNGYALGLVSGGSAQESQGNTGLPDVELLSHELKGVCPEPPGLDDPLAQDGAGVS
Excerpt: as §2

[7] = female SD rats, single intravenous injection 2 mg/kg
[8] = female SD rats, single oral 12 mg/kg
[9] = female SD rats, single oral 40 mg/kg
[10] = female SD rats, single oral 120 mg/kg
[11] = male SD rats, single intravenous injection 2 mg/kg
[12] = male SD rats, single oral 12 mg/kg
[13] = male SD rats, single oral 40 mg/kg
[14] = male SD rats, single oral 120 mg/kg
[15] = hepatocytes, 0.200, 2.00 or 20.0 µM
[16] = 0-168 hours after single oral administration
[17] = both sexes, cynomolgus monkey, plasma, po, 3 mg/kg, cynomolgus monkeys, single oral 3 mg/kg
[18] = both sexes, cynomolgus monkey, plasma, po, 15 mg/kg, cynomolgus monkeys, oral 15 mg/kg twice a day for 7 days, Day 1
[19] = both sexes, cynomolgus monkey, plasma, po, 15 mg/kg, cynomolgus monkeys, oral 15 mg/kg twice a day for 7 days, Day 7
[20] = both sexes, cynomolgus monkey, plasma, po, 15 mg/kg, cynomolgus monkeys, single oral 15 mg/kg
[21] = both sexes, cynomolgus monkey, plasma, po, 60 mg/kg, cynomolgus monkeys, single oral 60 mg/kg

## Cc1cc(-c2c(-c3ccccc3)nc(N)n3nc(CO)nc23)cc(C(F)(F)F)n1 [ILB-2109]
CHL cells
  chromosome aberration test result: negative
[1]
  micronucleus induction: no micronucleus-inducing effect
[2]; Beagle dogs liver microsomes
  metabolism rate: slowly metabolized or non-metabolized
[2]; CD-1 mice liver microsomes
  metabolism rate: moderate rate
[2]; SD rats liver microsomes
  metabolism rate: moderate rate
[2]; cynomolgus monkeys liver microsomes
  metabolism rate: slowly metabolized or non-metabolized
[2]; human liver microsomes
  metabolism rate: slowly metabolized or non-metabolized
[3]; SD rats, all dose regimens of the absorption test
  tolerability in the PK study: tolerated the compound well without any abnormal manifestations
[3]; female SD rats
  bioavailability: 67.8%
[3]; [7]
  AUC(0-t): 60.3 ± 5.18 µM·h
  half-life: 5.71 ± 1.25 h
  clearance: 1.33 ± 0.135 mL/min/kg
  Vd: 0.526 ± 0.0558 L/kg
[3]; [8]
  AUC(0-t): 247 ± 22.1 µM·h
  Cmax: 33.7 ± 2.8 µM
  peak time: 2.33 ± 1.53 h
[3]; [9]
  AUC(0-t): 915 ± 169 µM·h
  Cmax: 124 ± 17.5 µM
  peak time: 3.33 ± 1.15 h
[3]; [10]
  AUC(0-t): 1560 ± 205 µM·h
  Cmax: 155 ± 24.3 µM
  peak time: 2.67 ± 1.15 h
[3]; male SD rats
  bioavailability: 73%
[3]; [11]
  AUC(0-t): 13.3 ± 2.26 µM·h
  half-life: 1.26 ± 0.361 h
  clearance: 6.3 ± 1.04 mL/min/kg
  Vd: 0.681 ± 0.0975 L/kg
[3]; [12]
  AUC(0-t): 58.9 ± 19.2 µM·h
  Cmax: 23.8 ± 2.23 µM
  peak time: 0.667 ± 0.289 h
[3]; [13]
  AUC(0-t): 296 ± 54.1 µM·h
  Cmax: 63.3 ± 1.65 µM
  peak time: 1.33 ± 0.577 h
[3]; [14]
  AUC(0-t): 792 ± 167 µM·h
  Cmax: 118 ± 19.8 µM
  peak time: 2.67 ± 1.15 h
[3]; female and male rats, oral dose range 12 to 40 mg/kg
  dose proportionality of systemic exposure (AUC0-last) and Cmax: increased basically proportionally to the dose
[3]; female rats
  ratio of AUC0-last on Day 7 to Day 1: 0.669
  ratio of Cmax on Day 7 to Day 1: 0.899
[3]; male rats
  ratio of AUC0-last on Day 7 to Day 1: 0.584
  ratio of Cmax on Day 7 to Day 1: 0.673
[3]; oral single dose 12 mg/kg
  ratio of AUC0-last between female and male rats: 4.19
[3]; oral single dose 40 mg/kg
  ratio of AUC0-last between female and male rats: 3.09
[3]; oral single dose 120 mg/kg
  ratio of AUC0-last between female and male rats: 1.97
A3 receptor
  selectivity for A2aR compared with A3 receptor: 3424.7 times
CYP1A2; hepatocytes, 20.0 µM, Donor 1
  induction, gene expression level: inducer
CYP1A2; [15]
  induction, enzyme activity: not an inducer
CYP2B6; hepatocytes, 20.0 µM, Donor 1
  induction, gene expression level: inducer
CYP2B6; [15]
  induction, enzyme activity: not an inducer
CYP3A4; 2.00 µM, Donor 1 and Donor 3
  induction, gene expression level: inducer
CYP3A4; 20.0 µM, Donor 1, 2 and 3
  induction, gene expression level: inducer
CYP3A4; [15]
  induction, enzyme activity: not an inducer
[4]
  Ames test result: negative
[5]; [16]
  average of total radioactivity recovery: 91.74%
  cage washing and cleaning fluid, share of the administered dose: 2.75%
  feces, share of the administered dose: 75.17%
  total urinary excretion, share of the administered dose: 13.81%
[5]; within 48 hours after administration
  excretion within 48 hours, share of the administered dose: about 88.01%
[6]; both sexes, cynomolgus monkey, plasma, iv, 3 mg/kg, female and male cynomolgus monkeys, single intravenous injection 3 mg/kg
  AUC(0-t): 39.5 ± 5.27 µM·h
[6]; [17]
  AUC(0-t): 35.2 ± 6.87 µM·h
  Cmax: 8.19 ± 1.81 µM
[6]; [18]
  AUC(0-t): 172 ± 34.4 µM·h
  Cmax: 18.2 ± 4 µM
[6]; [19]
  AUC(0-t): 268 ± 42.5 µM·h
  Cmax: 28.3 ± 4.78 µM
[6]; [20]
  AUC(0-t): 192 ± 51.6 µM·h
  Cmax: 33.9 ± 9.66 µM
[6]; [21]
  AUC(0-t): 571 ± 254 µM·h
  Cmax: 59.3 ± 33.3 µM
[6]; both sexes, cynomolgus monkey, plasma, cynomolgus monkeys, 3 mg/kg oral dose group
  bioavailability: 89.1%
[6]; both sexes, cynomolgus monkey, plasma, female and male cynomolgus monkeys, single intravenous injection 3 mg/kg, read-out: elimination half-life (T1/2) (converted)
  half-life: 4.33 ± 0.75 h
[6]; both sexes, cynomolgus monkey, plasma, female and male cynomolgus monkeys, single intravenous injection 3 mg/kg, read-out: plasma clearance rate (CL)
  clearance: 3.13 ± 0.361 mL/min/kg
[6]; both sexes, cynomolgus monkey, plasma, female and male cynomolgus monkeys, single intravenous injection 3 mg/kg, read-out: steady-state apparent volume of distribution (Vd)
  Vd: 0.867 ± 0.141 L/kg
[6]; cynomolgus monkeys, each oral dose
  gender difference in systemic exposure (AUC0-last and Cmax): no significant gender difference
[6]; cynomolgus monkeys, oral 15 mg/kg twice a day for 7 consecutive days
  accumulation of systemic exposure: no obvious accumulation of systemic exposure
[6]; cynomolgus monkeys, oral 15 mg/kg twice a day for 7 days
  peak time: 3.00 ± 1.10 h
[6]; cynomolgus monkeys, oral dose 3 to 60 mg/kg
  dose proportionality of systemic exposure (AUC0-last): increased basically proportionally to the dose
[6]; cynomolgus monkeys, single oral 3 mg/kg
  peak time: 1.33 ± 0.516 h
[6]; cynomolgus monkeys, single oral 15 mg/kg
  peak time: 2.00 ± 1.10 h
[6]; cynomolgus monkeys, single oral 60 mg/kg
  peak time: 4.00 ± 2.19 h
Plasma protein binding
  binding rate in plasma: 87.3%-95.0%
A2aR
  IC50: 2.92 nM
